Measured values published in patent publication US20070238158A1, “Method for enhancing enzyme activity at elevated temperature” (The Institute of Physical and Chemical Research, priority 1996, published 2007).

Assays:
Type in all cases: biochemical
[1] = target: T1, reverse transcriptase Superscript II (Moloney murine leukemia virus, UniProt P03355, D1183G/D1242N/E1221Q); assay: Reverse transcription activity of Superscript II at elevated temperature (cDNA synthesis from in vitro transcribed RNA, denaturing agarose electrophoresis, autoradiography); conditions: for electrophoretic pattern: full length cDNAs versus short products from prematurely terminated synthesis: reaction at 60° C., 20% of the substance and 20% glycerol in buffer (Lane 3 condition)
T1 construct: Superscript II is known as a reverse transcriptase (RNA-dependent DNA polymerase)
Protocol: To examine reverse transcription activity of Superscript II at an elevated temperature, cDNAs were synthesized using RNAs transcribed in vitro by T7 RNA polymerase as template and the products were evaluated. By using RNAs as a template transcribed in vitro and evaluating the products by electrophoresis, reverse transcription efficiencies of the samples can be compared with one another and thereby non-specific transcription termination which leads to premature termination of reverse transcription and/or reduction of reaction efficiency can be evaluated. The template RNAs were prepared by transcribing pBluescript II SK, which had been cleaved into a linear form with a restriction enzyme NotI, with T7 RNA polymerase in vitro. This reaction was initiated from T7 promoter described in the instruction of pBluescript II SK.
As a control, the following standard buffer condition was used: 50 mM Tris-HCl, pH 8.3, 75 mM KCl, 3 mM MgCl2, 10 mM dithiothreitol, each 0.75 mM of dNTPs (dATP, dGTP, dCTP and dTTP).
In the above standard buffer condition, 1 μg of template RNA, 400 ng of primer (20mer SK primer, […]) and 200 units of Superscript II were prepared and the final volume was adjusted to 20 μl. 0.2 μl of [α-^32P] dGTP was used for labeling of reverse transcription products. The RNA and the primer were incubated at 65° C. before the other substrates were added. Then, the reaction was performed at 42° C. for 1 hour. The reaction products were subjected to denatured agarose electrophoresis and electrophoretic patterns were examined by autoradiography to evaluate recoveries of full length cDNAs and rates of short products obtained from incomplete elongation. The results are shown in Lane 1 of FIG. 1.
The following buffer condition for reverse transcription was used to verify that addition of oligosaccharide stabilizes the enzyme reaction: 50 mM Tris-HCl, pH 8.3, 75 mM KCl, 3 mM MgCl2, 10 mM dithiothreitol, each 0.75 mM of dNTPs (dATP, dGTP, dCTP, dTTP), 20% (w/v) trehalose and 20% (v/v) glycerol.
1 μg of template RNA, 400 ng of primer (20 mer SK primer) and 200 units of Superscript II were reacted in 24 μl of aqueous solution under the above buffer condition. 0.2 μl of [α-^32P] dGTP was used for labeling of reverse transcription products. […] The primer and the template RNAs were annealed at 37° C. for 2 minutes and the enzyme activity was measured at 60° C.
The reaction products were subjected to denaturing agarose electrophoresis as described above, and electrophoretic patterns were examined by autoradiography to evaluate recoveries of full length cDNAs and rates of short products obtained from incomplete elongation.

[2] = tested on: restriction enzyme Sty I; assay: Sty I restriction enzyme digestion of λ DNA at 37-60° C. (agarose gel, image analysis of 1 kbp band); conditions: suitable concentration; betaine 0-0.6M or sarcosine 0-3.6M; 37, 45, 50, 55 or 60° C. for 1 hour
Protocol: Reaction solutions (20 μl each) containing a restriction enzyme, Sty I 0.5 units, its substrate, λ DNA 0.5 μg and betaine 0-0.6M or sarcosine 0-3.6M were incubated at 37, 45, 50, 55 or 60° C. for 1 hour. In order to prevent initiation of enzyme reaction before the incubation, the samples were quickly prepared on ice. Upon incubation, 0.25% bromophenol blue, 0.26% XC (xylene cyanol), 30% glycerol and 120 mM EDTA (4 μl) was added to the reaction solution to terminate the reaction. The resulting solution was heated at […] for 5 minutes to melt cos sites and subjected to electrophoresis using 0.8% agarose gel containing 0.05% EtBr.
After electrophoresis, image analysis of the gels was conducted. Enzyme activity was represented by comparing strength of bands appeared at 1 kbp (with arrow). Regarding the samples using betaine, the standard (100) is the band strength obtained from the sample using 0 M of betaine and incubated at 37° C. Regarding the samples using sarcosine, the standard (100) is the band strength obtained from the sample using 0 M of sarcosine and incubated at 37° C.

[3] = target: T1, reverse transcriptase Superscript II; assay: Reverse transcription activity of Superscript II at elevated temperature (cDNA synthesis from in vitro transcribed RNA, denaturing agarose electrophoresis, autoradiography)

| Molecule | electrophoretic pattern: full length cDNAs versus short products from prematurely terminated synthesis [1] | also measured |
| --- | --- | --- |
| OC[C@H]1O[C@H](O[C@H]2[C@H](O)[C@@H](O)C(O)O[C@@H]2CO)[C@H](O)[C@@H](O)[C@@H]1O (mixture of isomers) [maltose] | the amount of products obtained from prematurely terminated synthesis became very small and full length products were synthesized | – |
| OC[C@@H](O)C(O)[C@H](O)CO [arabitol] | the amount of products obtained from prematurely terminated synthesis became very small and full length products were synthesized | – |
| C[N+](C)(C)CC(=O)O [betaine] | the amount of products obtained from prematurely terminated synthesis became very small and full length products were synthesized | thermal activation of restriction enzyme (relative activity of Sty I) [2]: thermally activated |
| O=C(CO)[C@@H](O)[C@H](O)[C@H](O)CO [levulose] | the amount of products obtained from prematurely terminated synthesis became very small and full length products were synthesized | – |
| CNCC(=O)O [sarcosine] | – | thermal activation of restriction enzyme (relative activity of Sty I) [2]: thermally activated |
| OC[C@@H](O)[C@@H](O)[C@H](O)[C@@H](O)CO [sorbitol] | the amount of products obtained from prematurely terminated synthesis became very small and full length products were synthesized | – |
| OC[C@H]1O[C@H](O[C@H]2O[C@H](CO)[C@@H](O)[C@H](O)[C@H]2O)[C@H](O)[C@@H](O)[C@@H]1O [trehalose] | the amount of products obtained from prematurely terminated synthesis became very small and full length products were synthesized | Superscript II activity compared with control reaction in standard buffer ([3]; normal temperature (42° C.), 20% (w/v) trehalose and 20% (v/v) glycerol): higher activity than the control reaction; electrophoretic pattern: products from premature termination of reverse transcription ([3]; reaction at 42° C., 20% trehalose and 20% glycerol (Lane 2)): products resulted from premature termination as mentioned above were also observed |
| OC[C@@H](O)[C@H](O)[C@@H](O)CO [xylitol] | the amount of products obtained from prematurely terminated synthesis became very small and full length products were synthesized | – |
| Triton X100 | – | amount of incomplete reverse transcription products when added to the Lane 3 condition ([1]; 60° C., 0.05% Triton X100 plus 20% trehalose and 20% glycerol (Lane 4)): further reduced; effect on enzyme activity when added to the Lane 3 condition ([1]; 60° C., additive plus 20% trehalose and 20% glycerol, BSA 0.125 μg/μl (Lane 5), Triton X100 0.05% (Lane 4)): the whole activity of the reverse transcriptase was slightly reduced |
